Where two headings read alike, the source gives them in different places.
Tested on: HCV proteins in Rep5.1 cells (replicon cell line)
Experiment: Inhibitory activity of HCV: cell-based ELISA in replicon cell line Rep5.1 (decrease of HCV proteins)
Design: species or system hepatitis C virus
Details: Rep5.1 cells, 72 hours with drug
Protocol: In order to, screen and evaluate the anti-HCV therapeutic agents in cell level, the following experiments are carried out using a replicon cell line, Rep5.1 [Lohmann, et al., Replication of subgenomic hepatitis C virus RNAs in a hepatoma cell line. Science 285:110-113 (1999)].
Rep5.1 cells, the replicon cell line, are cultured in DMEM-10 containing 500 μg/ml of G418. The Rep5.1 cells in log phase are suspended by trypsin treatment, and 5000 cells are distributed to each well of a 96-well plate. After 4 hours when the cells are attached to the plate, the serially diluted drug is added to each well. After 48 hours, a part of the treated cells are observed by microscope, and MTT assay is carried out to evaluate the drug toxicity. The cytotoxicity is estimated in percentage based on the control containing no drug. After 72 hours, the remaining cells are fixed by methanol/acetone (50/50, v/v), and the decrease of HCV proteins is measured by using HCV antibody. The extent of decrease is estimated in percentage based on the control containing no drug, and the concentration of drug at which 50% of proteins is decreased is determined to be IC50. The compounds showing activity via this procedure are validated by Western blotting. In order to find out whether the decrease of HCV protein is related to the decrease of replicon RNA, Rep5.1 cell is treated with some selected drugs for 72 hours, RNA is purified, dot blotted, and hybridized with isotope labelled nucleic acid to determine the amounts of actin mRNA and replicon RNA, and finally the amount of RNA is compared.
Plasma samples from 300 persons positive to the hepatitis C antibody test were screened by antibody diagnosis kit produced by LG life Sciences Ltd. (LG HCD3.0 TMB) to select 40 plasma samples having high titer. Replicon cell line and Huh-7 cell line each were cultured in a 96-well cell culture plate, fixed by methanol/acetone (1:1) mixture, and blocked by 3% skimmed milk. The 40 plasma sanples selected above were 100-fold diluted and aided thereto, and the bound antibodies were probed by anti-Human goat antibody (Sigma) to which Horse Radish Peroxidase is attached. As a result, 12 plasma samples having low specificity to Huh-7 cell line, but high specificity to replicon cell line were obtained. These plasma samples were used in the following cell-based ELISA.
Rep5.1 cells were cultured in DMEM-10 containing 500 μg/ml of G418. The Rep5.1 cells in log phase were suspended by trypsin treatment, and 5000 cells were distributed to each well of a 96-well pate. After 4 hours for which the cells were attached to the plate, the serially diluted drug was added to each well. After 72 hours, the cells were fixed by methanol/acetone (50/50, v/v), and the decrease of HCV proteins was measured by using HCV antibody obtained as above. The extent of decrease was estimated in percentage based on the control containing no drug, and the concentration of drug at which 50% of proteins was decreased was determined to be IC50.

[1] = Hepatitis C virus, 72 h, concentration at which 50% of HCV proteins was decreased, Table 2, read-out: IC50
[2] = Hepatitis C virus, 72 h, decrease of HCV proteins measured by HCV antibody, Table 1, read-out: Level (IC50 values classified)
[3] = concentration at which 50% of HCV proteins was decreased, Table 2, read-out: IC50

Row | SMILES | IC50 [1] [µM] | IC50 [2] [µM] | IC50 [3] [µM]
1 | CC1=C(C(=O)OCCc2ccc(N3CCCC3)c([N+](=O)[O-])c2)C(CO)NC(=S)N1 (centres unmarked) [99″, 4-Hydroxymethyl-6-methyl-2-thioxo-1,2,3,4-tetrahydro-pyrimidine-5-carboxylic acid 2-(3-nitro-4-pyrrolidin-1-yl-phenyl)-ethyl ester] | 1 | < 1 | 
2 | CC1=C(C(=O)OCCc2c[nH]c3ccccc23)CNC(=S)N1 [Compound 102, 6-methyl-2-thioxo-1,2,3,4-tetrahydro-pyrimidine-5-carboxylic acid 2-(1H-indol-3-yl)-ethyl ester] | 2 | 1 to 10 | 
3 | O=C(OCc1ccccc1)C1=CNC(=S)NC1 [Compound 44, 2-thioxo-1,2,3,4-tetrahydro-pyrimidine-5-carboxylic acid benzyl ester] | 3 | 1 to 10 | 
4 | CC1=C(C(=O)OCc2ccc(Br)cc2)CNC(=S)N1 [Compound 60, 6-methyl-2-thioxo-1,2,3,4-tetrahydro-pyrimidine-5-carboxylic acid 4-bromo-benzyl ester] | < 0.5 | < 1 | 
5 | CC1=C(C(=O)OCCc2cccc(C)c2)CNC(=S)N1 [Compound 172, 6-methyl-2-thioxo-1,2,3,4-tetrahydro-pyrimidine-5-carboxylic acid 2-m-tolyl-ethyl ester] | < 0.4 | < 1 | 
6 | CC1=C(C(=O)OCc2ccc([N+](=O)[O-])cc2)CNC(=S)N1 [Compound 7, 6-methyl-2-thioxo-1,2,3,4-tetrahydro-pyrimidine-5-carboxylic acid 4-nitro-benzyl ester] | 2.5 | 1 to 10 | 
7 | CC1=C(C(=O)OCc2ccc(-c3cccs3)s2)CNC(=S)N1 [Compound 218, 6-methyl-2-thioxo-1,2,3,4-tetrahydro-pyrimidine-5-carboxylic acid[2,2′]bithiophenyl-5-ylmethyl ester] |  |  | < 0.4
8 | CC1=C(C(=O)OCCCc2ccccc2)CNC(=S)N1 [Compound 14, 6-methyl-2-thioxo-1,2,3,4-tetrahydro-pyrimidine-5-carboxylic acid 3-phenyl-propyl ester] | 0.2 | < 1 | 
9 | CC1=C(C(=O)OCc2nc3ccccc3s2)CNC(=S)N1 [Compound 226, 6-methyl-2-thioxo-1,2,3,4-tetrahydro-pyrimidine-5-carboxylic acid benzothiazol-2-ylmethyl ester] | 2.2 | 1 to 10 | 
10 | O=C(O)CCCC1=C(C(=O)OCc2ccccc2)CNC(=S)N1 [Compound 170, 6-(3-carboxy-propyl)-2-thioxo-1,2,3,4-tetrahydro-pyrimidine-5-carboxylic acid benzyl ester] | 90 | > 20 | 
11 | CC1=C(C(=O)OCCc2ccc(C)c(Cl)c2)C(CO)NC(=S)N1 (centres unmarked) [74″, 4-hydroxymethyl-6-methyl-2-thioxo-1,2,3,4-tetrahydro-pyrimidine-5-carboxylic acid 2-(3-chloro-4-methyl-phenyl)-ethyl ester] | < 0.4 | < 1 | 
12 | CC1=C(C(=O)OCc2ccc(F)cc2Cl)C(CO)NC(=S)N1 (centres unmarked) [48″, 4-hydroxymethyl-6-methyl-2-thioxo-1,2,3,4-tetrahydro-pyrimidine-5-carboxylic acid 2-chloro-4-fluoro-benzyl ester] | 43 | > 20 | 
13 | COC(=O)NCCOC(=O)OCC1NC(=S)NC(C)=C1C(=O)OCCc1cccc(Cl)c1 (centres unmarked) [80″, 4-(2-methoxycarbonylnamino-ethoxycarbonyloxymethyl)-6-methyl-2-thioxo-1,2,3,4-tetrahydro-pyrimidine-5-carboxylic acid 2-(3-chloro-phenyl)-ethyl ester] |  |  | 1.1
14 | CC1=C(C(=O)OCCc2cc(C)cc(C)c2)CNC(=S)N1 [Compound 175, 6-methyl-2-thioxo-1,2,3,4-tetrahydro-pyrimidine-5-carboxylic acid 2-(3,5-dimethylphenyl)-ethyl ester] | < 0.4 | < 1 | 
15 | CC1=C(C(=O)OC(C)CCc2ccccc2)CNC(=S)N1 (centres unmarked) [Compound 42, 6-methyl-2-thioxo-1,2,3,4-tetrahydro-pyrimidine-5-carboxylic acid 1-methyl-3-phenyl-propyl ester] | 0.5 | < 1 | 
16 | CC(=O)Oc1ccccc1CCC(=O)OCC1NC(=S)NC(C)=C1C(=O)OCCc1cccc([N+](=O)[O-])c1 (centres unmarked) [81″, 4-[3-(2-acetoxy-phenyl)-propionyloxymethyl]-6-methyl-2-thioxo-1,2,3,4-tetrahydro-pyrimidine-5-carboxylic acid 2-(3-nitro-phenyl)-ethyl ester] | 6.5 | 1 to 10 | 
17 | COc1cc(COC(=O)C2=C(C)NC(=S)NC2)cc(Br)c1OC [Compound 178, 6-methyl-2-thioxo-1,2,3,4-tetrahydro-pyrimidine-5-carboxylic acid 3-bromo-4,5-dimethoxy-benzyl ester] | 1.5 | 1 to 10 | 
18 | CC1=C(C(=O)OCCc2cccc(Cl)c2)C(COC(=O)OCCOC(=O)c2ccccc2)NC(=S)N1 (centres unmarked) [76″, 4-(2-benzoyloxy-ethoxycarbonyloxymethyl)-6-methyl-2-thioxo-1,2,3,4-tetrahydro-pyrimidine-5-carboxylic acid 2-(3-chloro-phenyl)-ethyl ester] | 0.9 | < 1 | 
19 | CC1=C(C(=O)OCc2ccc(N(C)C)cc2)CNC(=S)N1 [Compound 79, 6-methyl-2-thioxo-1,2,3,4-tetrahydro-pyrimidine-5-carboxylic acid 4-dimethylamino-benzyl ester] | 1.3 | 1 to 10 | 
20 | O=C(OCc1ccccc1)C1=C(C(=O)OCc2ccccc2)NC(=S)NC1 [Compound 87, 2-thioxo-1,2,3,6-tetrahydro-pyrimidine-4,5-dicarboxylic acid dibenzyl ester] | 56 | > 20 | 
21 | CC1=C(C(=O)OCc2ccn(S(=O)(=O)c3ccc(C)cc3)c2)CNC(=S)N1 [Compound 230, 6-methyl-2-thioxo-1,2,3,4-tetrahydro-pyrimidine-5-carboxylic acid 1-(toluene-4-sulfonyl)-1H-pyrrol-3-ylmethyl ester] | < 0.4 | < 1 | 
22 | C#CCCOC(=O)C1=C(C)NC(=S)NC1 [Compound 129, 6-methyl-2-thioxo-1,2,3,4-tetrahydro-pyrimidine-5-carboxylic acid but-3-inyl ester] |  |  | > 100
23 | CC1=C(C(=O)OCCCCCCCCc2ccccc2)CNC(=S)N1 [Compound 33, 6-methyl-2-thioxo-1,2,3,4-tetrahydro-pyrimidine-5-carboxylic acid 8-phenyl-octyl ester] | < 0.5 | < 1 | 
24 | CC1=C(C(=O)OCCc2c(F)cccc2F)C(CF)NC(=S)N1 (centres unmarked) [75′, 4-fluoromethyl-6-methyl-2-thioxo-1,2,3,4-tetrahydro-pyrimidine-5-carboxylic acid 2-(2,6-difluoro-phenyl)-ethyl ester] | 2.6 | 1 to 10 | 
25 | CC1=C(C(=O)OCCOCCc2ccsc2)CNC(=S)N1 [54′, 6-methyl-2-thioxo-1,2,3,4-tetrahydro-pyrimidine-5-carboxylic acid 2-(2-thiophen-3-yl-ethoxy)-ethyl ester] | 5 | 1 to 10 | 
26 | COc1ccc(COc2ccc(COC(=O)C3=C(C)NC(=S)NC3)cc2)cc1 [Compound 227, 6-methyl-2-thioxo-1,2,3,4-tetrahydro-pyrimidine-5-carboxylic acid 4-(4-methoxy-benzyloxy)-benzyl ester] | < 0.4 | < 1 | 
27 | CC(=O)OCC1NC(=S)NC(C)=C1C(=O)OCCc1cccc(Cl)c1 (centres unmarked) [44″, 4-acetoxymethyl-6-methyl-2-thioxo-1,2,3,4-tetrahydro-pyrimidine-5-carboxylic acid 2-(3-chloro-phenyl)-ethyl ester] | 5 | 1 to 10 | 
28 | CC1=C(C(=O)OCc2ccccc2[N+](=O)[O-])CNC(=S)N1 [Compound 183, 6-methyl-2-thioxo-1,2,3,4-tetrahydro-pyrimidine-5-carboxylic acid 2-nitro-benzyl ester] | 2.5 | 1 to 10 | 
